Reference: patent publication US8969386B2, “Modulators of CFTR” (Vertex Pharmaceuticals Incorporated, priority 2007, dated 2015)

Target: T1, ΔF508-CFTR (Homo sapiens, UniProt P13569, DEL508-508)
T1 construct: expressed in transfected cells
Assay: ΔF508-CFTR correction, membrane potential optical (FRET/VIPR) assay
Format: cell-based
Conditions: NIH3T3 mouse fibroblasts stably expressing ΔF508-CFTR; for Emax: read-out: % Efficacy
Source text: Assays for Detecting and Measuring ΔF508-CFTR Correction Properties of Compounds
Membrane potential optical methods for assaying ΔF508-CFTR modulation properties of compounds
The optical membrane potential assay utilized voltage-sensitive FRET sensors described by Gonzalez and Tsien (See Gonzalez, J. E. and R. Y. Tsien (1995) “Voltage sensing by fluorescence resonance energy transfer in single cells” Biophys J 69(4): 1272-80, and Gonzalez, J. E. and R. Y. Tsien (1997) “Improved indicators of cell membrane potential that use fluorescence resonance energy transfer” Chem Biol 4(4): 269-77) in combination with instrumentation for measuring fluorescence changes such as the Voltage/Ion Probe Reader (VIPR) (See Gonzalez, J. E., K. Oades, et al. (1999) “Cell-based assays and instrumentation for screening ion-channel targets” Drug Discov Today 4(9): 431-439).
These voltage sensitive assays are based on the change in fluorescence resonant energy transfer (FRET) between the membrane-soluble, voltage-sensitive dye, DiSBAC2(3), and a fluorescent phospholipid, CC2-DMPE, which is attached to the outer leaflet of the plasma membrane and acts as a FRET donor. Changes in membrane potential (Vm) cause the negatively charged DiSBAC2(3) to redistribute across the plasma membrane and the amount of energy transfer from CC2-DMPE changes accordingly. The changes in fluorescence emission were monitored using VIPR™ II, which is an integrated liquid handler and fluorescent detector designed to conduct cell-based screens in 96- or 384-well microtiter plates.
1. Identification of Correction Compounds
To identify small molecules that correct the trafficking defect associated with ΔF508-CFTR; a single-addition HTS assay format was developed. The cells were incubated in serum-free medium for 16 hrs at 37° C. in the presence or absence (negative control) of test compound. As a positive control, cells plated in 384-well plates were incubated for 16 hrs at 27° C. to “temperature-correct” ΔF508-CFTR. The cells were subsequently rinsed 3× with Krebs Ringers solution and loaded with the voltage-sensitive dyes. To activate ΔF508-CFTR, 10 μM forskolin and the CFTR potentiator, genistein (20 μM), were added along with Cl^−-free medium to each well. The addition of Cl^−-free medium promoted Cl^− efflux in response to ΔF508-CFTR activation and the resulting membrane depolarization was optically monitored using the FRET-based voltage-sensor dyes.
NIH3T3 mouse fibroblasts stably expressing ΔF508-CFTR are used for optical measurements of membrane potential. The cells are maintained at 37° C. in 5% CO2 and 90% humidity in Dulbecco's modified Eagle's medium supplemented with 2 mM glutamine, 10% fetal bovine serum, 1×NEAA, β-ME, 1× pen/strep, and 25 mM HEPES in 175 cm^2 culture flasks. For all optical assays, the cells were seeded at 30,000/well in 384-well matrigel-coated plates and cultured for 2 hrs at 37° C. before culturing at 27° C. for 24 hrs for the potentiator assay. For the correction assays, the cells are cultured at 27° C. or 37° C. with and without compounds for 16-24 hours Electrophysiological Assays for assaying ΔF508-CFTR modulation properties of compounds

T1 sequence (P13569 with tags, fused parts or gaps DEL508-508): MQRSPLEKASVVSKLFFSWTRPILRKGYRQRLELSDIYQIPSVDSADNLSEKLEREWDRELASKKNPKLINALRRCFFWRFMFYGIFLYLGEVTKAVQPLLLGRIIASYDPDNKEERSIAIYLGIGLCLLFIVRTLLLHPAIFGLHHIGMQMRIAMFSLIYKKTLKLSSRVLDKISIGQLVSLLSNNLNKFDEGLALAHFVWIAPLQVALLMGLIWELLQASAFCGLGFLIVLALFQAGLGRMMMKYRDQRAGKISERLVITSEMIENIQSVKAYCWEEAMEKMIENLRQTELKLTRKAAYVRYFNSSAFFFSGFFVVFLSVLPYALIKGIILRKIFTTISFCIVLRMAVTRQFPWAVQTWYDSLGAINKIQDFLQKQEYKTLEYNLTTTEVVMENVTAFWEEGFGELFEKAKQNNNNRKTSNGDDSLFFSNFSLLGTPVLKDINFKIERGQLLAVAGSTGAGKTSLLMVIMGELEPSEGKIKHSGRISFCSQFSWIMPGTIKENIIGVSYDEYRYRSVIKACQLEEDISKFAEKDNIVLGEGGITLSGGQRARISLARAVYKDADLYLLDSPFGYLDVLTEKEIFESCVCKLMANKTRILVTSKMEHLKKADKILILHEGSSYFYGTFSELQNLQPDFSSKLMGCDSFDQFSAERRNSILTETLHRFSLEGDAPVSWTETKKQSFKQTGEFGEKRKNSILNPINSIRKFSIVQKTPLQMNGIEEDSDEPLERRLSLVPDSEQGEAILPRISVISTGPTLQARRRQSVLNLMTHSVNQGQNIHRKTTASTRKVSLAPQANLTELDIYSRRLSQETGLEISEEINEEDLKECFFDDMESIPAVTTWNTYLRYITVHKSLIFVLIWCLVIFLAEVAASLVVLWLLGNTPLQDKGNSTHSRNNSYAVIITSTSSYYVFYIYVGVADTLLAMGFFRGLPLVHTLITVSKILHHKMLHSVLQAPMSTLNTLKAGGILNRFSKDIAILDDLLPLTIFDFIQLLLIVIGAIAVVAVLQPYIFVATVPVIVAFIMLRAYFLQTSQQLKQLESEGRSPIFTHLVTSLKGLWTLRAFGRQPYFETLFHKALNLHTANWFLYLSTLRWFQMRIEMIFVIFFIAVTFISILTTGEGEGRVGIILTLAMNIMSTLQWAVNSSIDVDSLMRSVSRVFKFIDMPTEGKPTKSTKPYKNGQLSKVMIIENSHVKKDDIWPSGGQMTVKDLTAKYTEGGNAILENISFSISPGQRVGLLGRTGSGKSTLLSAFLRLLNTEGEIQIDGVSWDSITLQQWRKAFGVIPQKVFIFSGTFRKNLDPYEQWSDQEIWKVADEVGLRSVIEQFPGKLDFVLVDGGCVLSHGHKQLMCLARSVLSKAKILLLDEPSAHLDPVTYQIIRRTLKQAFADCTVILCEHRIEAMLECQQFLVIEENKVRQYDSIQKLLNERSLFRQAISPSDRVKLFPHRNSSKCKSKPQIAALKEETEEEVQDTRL

EC50 [µM]	Emax [%]	SMILES
< 2	50 to 100	Cc1ccc(NC(=O)C2(c3ccc4c(c3)OC(F)(F)O4)CC2)nc1-c1c[nH]c(=O)c(CO)c1 [Compound 1]
< 2	50 to 100	COc1ccc(C2(C(=O)Nc3ccc(C)c(-c4ccc(OC)nc4)n3)CC2)cc1 [Compound 2]
< 2	> 100	COc1cc(-c2cc(C)cc(NC(=O)C3(c4ccc5c(c4)OC(F)(F)O5)CC3)n2)ccn1 [Compound 3]
< 2	50 to 100	CC(=O)Nc1cc(-c2nc(NC(=O)C3(c4ccc5c(c4)OC(F)(F)O5)CC3)ccc2C)c[nH]c1=O [Compound 4]
< 2	50 to 100	CCc1ccc(NC(=O)C2(c3ccc4c(c3)OC(F)(F)O4)CC2)nc1-c1ccc(=O)[nH]c1 [Compound 5]
< 2	> 100	Cc1ccc(NC(=O)C2(c3ccc4c(c3)OC(F)(F)O4)CC2)nc1-c1c[nH]c(=O)c(C)c1 [Compound 6]
< 2	50 to 100	COc1ccc(C2(C(=O)Nc3ccc(C)c(-c4cccnc4OC)n3)CC2)cc1 [Compound 7]
< 2	50 to 100	COc1ncc(C)cc1-c1nc(NC(=O)C2(c3ccc4c(c3)OC(F)(F)O4)CC2)ccc1C [Compound 8]
< 2	> 100	COc1ncc(-c2nc(NC(=O)C3(c4ccc5c(c4)OC(F)(F)O5)CC3)ccc2C)cc1N [Compound 9]
< 2	50 to 100	COc1ccc(C2(C(=O)Nc3ccc(C)c(-c4ccc[nH]c4=O)n3)CC2)cc1 [Compound 10]
< 2	> 100	COc1cc(-c2nc(NC(=O)C3(c4ccc5c(c4)OC(F)(F)O5)CC3)ccc2C)ccn1 [Compound 11]
< 2	50 to 100	Cc1ccc(NC(=O)C2(c3ccc4c(c3)OC(F)(F)O4)CC2)nc1-c1ccc(=O)[nH]c1 [Compound 12]
> 5	50 to 100	Cc1ccc(NC(=O)C2(c3ccc4c(c3)OC(F)(F)O4)CC2)nc1-c1ccc(=O)n(CC(=O)O)c1 [Compound 13]
< 2	50 to 100	Cc1cc(=O)[nH]cc1-c1nc(NC(=O)C2(c3ccc4c(c3)OC(F)(F)O4)CC2)ccc1C [Compound 14]
< 2	> 100	COc1ncccc1-c1nc(NC(=O)C2(c3ccc4c(c3)OC(F)(F)O4)CC2)ccc1C [Compound 15]
< 2	50 to 100	COC(=O)Cn1ccc(-c2nc(NC(=O)C3(c4ccc5c(c4)OC(F)(F)O5)CC3)ccc2C)cc1=O [Compound 16]
< 2	> 100	Cc1cc(NC(=O)C2(c3ccc4c(c3)OC(F)(F)O4)CC2)nc(-c2ccc[nH]c2=O)c1 [Compound 17]
< 2	> 100	COc1cc(C)c(-c2nc(NC(=O)C3(c4ccc5c(c4)OC(F)(F)O5)CC3)ccc2C)cn1 [Compound 18]
< 2	> 100	Cc1cc(NC(=O)C2(c3ccc4c(c3)OC(F)(F)O4)CC2)nc(-c2cc[nH]c(=O)c2)c1 [Compound 19]
< 2	> 100	Cc1ccc(NC(=O)C2(c3ccc4c(c3)OC(F)(F)O4)CC2)nc1-c1ccc(=O)n(CCO)c1 [Compound 20]
< 2	50 to 100	COc1cc(-c2nc(NC(=O)C3(c4ccc5c(c4)OC(F)(F)O5)CC3)ccc2C)c[nH]c1=O [Compound 21]
< 2	50 to 100	O=C(Nc1ccc(Cl)c(-c2ccc(=O)[nH]c2)n1)C1(c2ccc3c(c2)OC(F)(F)O3)CC1 [Compound 22]
2 to 5	50 to 100	Cc1ccc(NC(=O)C2(c3ccc4c(c3)OC(F)(F)O4)CC2)nc1-c1c[nH]c(=O)c(C(=O)O)c1 [Compound 23]
< 2	> 100	COc1ccc(-c2nc(NC(=O)C3(c4ccc5c(c4)OC(F)(F)O5)CC3)ccc2Cl)cn1 [Compound 24]
< 2	> 100	Cc1ccc(NC(=O)C2(c3ccc4c(c3)OC(F)(F)O4)CC2)nc1-c1c[nH]c(=O)c(Cl)c1 [Compound 25]

EC50 [µM]	Emax [%]	SMILES
< 2	50 to 100	COc1ccc(C2(C(=O)Nc3ccc(C)c(-c4cc[nH]c(=O)c4)n3)CC2)cc1 [Compound 26]
< 2	> 100	Cc1cc(NC(=O)C2(c3ccc4c(c3)OC(F)(F)O4)CC2)nc(-c2ccc(=O)[nH]c2)c1 [Compound 27]
< 2	50 to 100	Cc1ccc(NC(=O)C2(c3ccc4c(c3)OC(F)(F)O4)CC2)nc1-c1ccc(=O)[nH]c1O [Compound 28]
< 2	> 100	Cc1ccc(NC(=O)C2(c3ccc4c(c3)OC(F)(F)O4)CC2)nc1-c1ccn(CCO)c(=O)c1 [Compound 29]
< 2	50 to 100	CCc1ccc(NC(=O)C2(c3ccc4c(c3)OC(F)(F)O4)CC2)nc1-c1ccc(OC)nc1 [Compound 30]
< 2	50 to 100	Cc1c[nH]c(=O)c(-c2nc(NC(=O)C3(c4ccc5c(c4)OC(F)(F)O5)CC3)ccc2C)c1 [Compound 31]
2 to 5	50 to 100	CNC(=O)c1cc(-c2nc(NC(=O)C3(c4ccc5c(c4)OC(F)(F)O5)CC3)ccc2C)c[nH]c1=O [Compound 32]
< 2	> 100	COc1ncc(-c2nc(NC(=O)C3(c4ccc5c(c4)OC(F)(F)O5)CC3)ccc2C)cc1NC(C)=O [Compound 33]
2 to 5	50 to 100	Cc1ccc(NC(=O)C2(c3ccc4c(c3)OC(F)(F)O4)CC2)nc1-c1c[nH]c(=O)c(C(N)=O)c1 [Compound 34]
< 2	50 to 100	COc1cccc(-c2nc(NC(=O)C3(c4ccc5c(c4)OC(F)(F)O5)CC3)ccc2C)n1 [Compound 35]
< 2	> 100	COc1ccc(-c2nc(NC(=O)C3(c4ccc5c(c4)OC(F)(F)O5)CC3)ccc2C)c(C)n1 [Compound 36]
< 2	> 100	COc1ccc(-c2nc(NC(=O)C3(c4ccc5c(c4)OC(F)(F)O5)CC3)ccc2C)cn1 [Compound 37]
< 2	> 100	COc1ccc(-c2cc(C)cc(NC(=O)C3(c4ccc5c(c4)OC(F)(F)O5)CC3)n2)cn1 [Compound 38]
< 2	50 to 100	Cc1ccc(NC(=O)C2(c3ccc4c(c3)OC(F)(F)O4)CC2)nc1-c1c[nH]c(=O)c(F)c1 [Compound 39]
< 2	> 100	Cc1ccc(NC(=O)C2(c3ccc4c(c3)OC(F)(F)O4)CC2)nc1-c1ccc(=O)[nH]c1C [Compound 40]
< 2	> 100	Cc1ccc(NC(=O)C2(c3ccc4c(c3)OC(F)(F)O4)CC2)nc1-c1ccn(C)c(=O)c1 [Compound 41]
< 2	50 to 100	Cc1ccc(NC(=O)C2(c3ccc4c(c3)OC(F)(F)O4)CC2)nc1-c1c[nH]c(=O)c(C#N)c1 [Compound 42]
< 2	> 100	COc1ncc(-c2nc(NC(=O)C3(c4ccc5c(c4)OC(F)(F)O5)CC3)ccc2C)cc1F [Compound 43]
< 2	50 to 100	Cc1ccc(NC(=O)C2(c3ccc4c(c3)OC(F)(F)O4)CC2)nc1-c1cc[nH]c(=O)c1 [Compound 44]
< 2	> 100	COc1ccc(C2(C(=O)Nc3ccc(C)c(-c4ccnc(OC)c4)n3)CC2)cc1 [Compound 45]
< 2	50 to 100	Cc1ccc(NC(=O)C2(c3ccc4c(c3)OC(F)(F)O4)CC2)nc1-c1ccc[nH]c1=O [Compound 46]
< 2	< 50	Cc1ccc(NC(=O)C2(c3ccc4c(c3)OC(F)(F)O4)CC2)nc1-c1ccn(CC(=O)O)c(=O)c1 [Compound 47]
< 2	> 100	COc1ncccc1-c1cc(C)cc(NC(=O)C2(c3ccc4c(c3)OC(F)(F)O4)CC2)n1 [Compound 48]
< 2	50 to 100	Cc1ccc(NC(=O)C2(c3ccc4c(c3)OCO4)CC2)nc1-c1ccc(=O)[nH]c1 [Compound 49]
< 2	50 to 100	Cc1ccc(NC(=O)C2(c3ccc4c(c3)OC(F)(F)O4)CC2)nc1-c1cccc(=O)[nH]1 [Compound 50]
